We go through five compounds from patent US6379658B1, “Human sweat malodor counteractant composition and process for using same” (International Flavors & Fragrances Inc., priority 1999, dated 2002).

A short description of this test: Human sweat malodor neutralization (jar method), headspace rated by trained panel using Magnitude Estimation. The conditions noted are these: single fragrance ingredient; % Reduction=100×[1-(malodor intensity/total intensity)]. The method, then:
Malodor neutralization is evaluated by placing a specified amount of malodor into an uncapped, 1 ounce wide-mouth jar. This jar is placed into an 8 ounce wide-mouth jar containing a specified amount of test material or finished fragrance. The quantities of malodor and fragrance are dependent on the specific malodor model used. The 8 ounce jar is capped and allowed to equilibrate. The panelists then rate the headspace for (1) total intensity, (2) malodor intensity and (3) overall like/dislike (hedonics). They are provided with an identified sample of malodor as a reference. Each group of samples presented to the panel contains an unidentified positive control (a fragrance material with no malodor), two unidentified negative controls (malodor with no fragrance) and up to twelve test samples (each fragrance is presented in duplicate or triplicate).
It is to be noted that evaluations are carried out by panelists who have been extensively screened for their olfactory acuity and trained in the method of evaluation (Magnitude Estimation). Panelist performance is constantly monitored and reviewed.
All samples are coded with random 5-digit numbers. Panelists are instructed to select samples from the test set and evaluate them in a random order.
The results of these experiments are expressed in terms of malodor reduction (neutralization), change in overall intensity and improvement in hedonics.
The percent malodor reduction is calculated as:
% Reduction=100×[1-(malodor intensity/total intensity)]
or shown thusly: [formula]
wherein wherein RMOL represents malodor reduction; iMO is malodor intensity; and iT represents total intensity.
The following protocol has been developed to determine the level of odor neutralization:
1. A predetermined quantity of the malodor model is measured with a micropipette into an uncapped 1 oz. wide-mouth jar. This jar is subsequently placed into an 8 oz. wide-mouth jar containing a predetermined quantity of the test material. The 8 oz. jar is capped and allowed to equilibrate prior to evaluation;
2. […] Each judge is also presented with an identified sample of the malodor in order to reinforce the malodor discrimination task;
3. Each of the judges rate the headspace for (a) total odor intensity, (b) malodor intensity and (c) the overall like/dislike (hedonics) of the sample; and […]

On to `CC(=O)CCc1ccccc1` [Benzyl acetone, benzyl acetone], for which the “% Human Sweat Malodor Coverage” value was 96% reduction.

With `CC(=O)c1ccc2ccccc2c1` [Methyl β-naphthalene ketone, methyl β-naphthyl ketone], the “% Human Sweat Malodor Coverage” value was 96% reduction.

As to `COc1ccc2ccccc2c1` [β-Naphthyl methyl ether, β-naphthyl methyl ether], the “% Human Sweat Malodor Coverage” value is 92% reduction.

As for `CC(=O)C(C)=CC1C(C)=CCCC1(C)C` (centres unmarked) [γ-Methyl ionone, 4-(2,6,6-trimethyl-2-cyclohexen-1-yl)-3-methyl-3-buten-2-one], the “% Human Sweat Malodor Coverage” value is 93% reduction.

Take “mixture of hexahydro4,7-methanoinden-5-yl propionate and hexahydro-4,7-methanoinden-6-yl propionate [CYCLAPROP ™]”: the “% Human Sweat Malodor Coverage” value is reported as 91% reduction.
